Here are results for 6 compounds from patent US20230067910A1, “NOVEL COMPOUNDS FOR THE DIAGNOSIS, TREATMENT AND PREVENTION OF DISEASES ASSOCIATED WITH THE AGGREGATION OF ALPHA-SYNUCLEIN” (MODAG GMBH, priority 2019, published 2023).

The target in test [1] is T1, alpha-synuclein (fibrils) (Homo sapiens, UniProt P37840).
T1 construct: made in house; host or cells: E. coli
The experiment in a line: Competition binding assay, protocol 3a, reference ligand [3H]-compound 1, alpha-synuclein fibrils. Particulars: reference ligand [3H]-compound 1 (1 nM). The procedure: (§1) Alpha-synuclein and tau46 were purified from E. coli according to established protocols (Nuscher B, et al., J. Biol. Chem., 2004; 279(21):21966-75), Aβ1-42 was obtained from rPeptide, Watkinsville, Ga., USA. Fibrils were prepared by aggregation of recombinant protein via constant agitation. In detail, 70 μM of alpha-synuclein mixed with 100 mM NaCl in 50 mM Tris, pH 7.0+0.02% NaN3 were incubated at 1,400 rpm, 37° C. for 96 h. 10 μM of tau46 were incubated with 0.03 mg/ml heparin in 50 mM Tris, pH=7.0 at 1,000 rpm, 37° C. for 72 h. Aβ1-42 was solved in 20 mM NaPi, pH=8.0+0.2 mM EDTA+0.02% NaN3 (Deeg A A, et al., Biochim. Biophys. Acta, 2015; 1850(9): 1884-90; Goedert M, et al. Nature, 1996; 383(6600): 550-3).
(§2) A fixed concentration of sonicated human recombinant αSYN (200 nM/well) or tau46 (208 nM/well) fibrils diluted in phosphate buffered saline (PBS) were incubated in low binding plates (96 well micro test plate, Ratiolab GmbH, Dreieich, Germany) together with 1 nM [^3H]-compound 1 and 1:4 serial dilutions of the cold compound of interest starting from 1 μM diluted in 50 mM Tris-base, 10% EtOH, 0.05% Tween20, pH 7.4. For the calculation of Ki values the KD value of compound 1 toward sonicated human recombinant αSYN fibrils was set to 3 nM.
(§3) Assay plates were incubated under agitation at 37° C. for 2 h covered by plastic foil (Resealable tape, PerkinElmer, Waltham, Mass., USA). Prior to harvesting, a filter (Printed filtermat B, PerkinElmer, Waltham, Mass., USA) was incubated with 5 mg/mL polyethylenimine (PEI, Poly(ethyleneimine) solution, Sigma Aldrich Chemie GmbH, Taufkirchen, Germany) at 4° C. for 30 min. After incubation, bound and free ligands were separated by vacuum filtration using a harvester (Filtermate harvester, PerkinElmer, Waltham, Mass., USA). The filter was washed three times with buffer cooled to 4° C. and subsequently dried in the microwave for 2 min at medium power. The filter was sealed in a plastic bag (Sample bag for MicroBeta®, PerkinElmer, Waltham, Mass., USA) together with added scintillator (BETAPLATE SCINT, PerkinElmer, Waltham, Mass., USA). Accumulation of tritium was counted in a liquid scintillation counter (Wallac MicroBeta® TriLux, 1450 LSC & Luminescence Counter, PerkinElmer, Waltham, Mass., USA) immediately. Radioactivity was plotted against the increasing tritium-labeled compound or cold compound concentrations. Data points were fitted using nonlinear regression analysis in GraphPad Prism (GraphPad Software, Inc., Version 7.03, La Jolla, Calif., USA).
(§4) The fibril competition assay provides Ki values. Ki is a quantitative measure that represents the concentration of the non-radioactive tested compound (competitor ligand) required to replace 50% of a reference compound, in this case [H]-compound 1 (1 nM) or [H]-compound 2 (1 nM), which is bound to the target structures (1 nM), in our case recombinant alpha-synuclein and tau46 fibrils. This assay is suitable for a screening of non-radioactive ligands.

The target in a further test is T2, tau46 (fibrils) (Homo sapiens, UniProt P10636).
T2 construct: made in house; host or cells: E. coli
The experiment in a line: Competition binding assay, protocol 3a, reference ligand [3H]-compound 1, tau46 fibrils. To be noted: Experiment B, reference ligand [3H]-compound 1 (1 nM). The procedure: as §1, §2, §3, §4

Test [2] deals with T3, alpha-synuclein (sonicated fibrils) (Homo sapiens, UniProt P37840).
T3 construct: made in house; host or cells: E. coli
The experiment in a line: Modified competition binding assay, protocol 3b, reference ligand [3H]-compound 2. Particulars: Table 5, reference ligand [3H]-compound 2 (1 nM). Here is the method: as §1
For competition binding experiments, a fixed concentration of recombinant αSYN fibrils (sonicated, 15 nM/well) was incubated with 1 nM [^3H]-compound 1 or [3H]-compound 2 and decreasing concentrations of a serial dilution of non-labeled competitor (serial dilution 1:4 or 1:3.5 or 1:3 providing the concentration ranges of non-labeled competitor 1 μM-[…] 1 μM-4 nM or 1 μM-[…], respectively) in 30 mM Tris-HCl, 10% ethanol, 0.05% Tween20, pH 7.4 in a total volume of 200 μL/well. Plates were incubated for 4.5 hours at RT covered by removable sealing tape (PerkinElmer, Waltham, Mass., USA).
Filtration and readout were performed as described for saturation binding assays. [^3H]-labeled ligand binding [in CMP] was plotted against increasing competitor concentrations and data points were fitted using non-linear regression analysis to calculate the IC50 and Ki values (GraphPad Software, Inc., Version 7.03, La Jolla (Calif.), USA). In the competition binding assay with sonicated recombinant αSYN fibrils, the calculation of Ki values was done based on KD values of 0.6 nM and 0.2 nM for compound 1 and compound 2, respectively.
as §4

Test [3] deals with H4 cells overexpressing alpha-synuclein hemi-Venus fusion constructs (V1S+SV2). As to the kind of experiment: Cellular model of aggregated alpha-synuclein-dependent toxicity, V1S+SV2 H4 cells. The test is classed as cell-based. To be noted: 10 μM compound, 100 μM FeCl3, 0.75% DMSO, 48 h; for inhibition at 10 µM: read-out: Change in fraction of condensed nuclei (rel. to DMSO control) [%]. The procedure: (§5) To identify potential therapeutically useful effects, compounds were tested in two cellular models of aggregated alpha-synuclein-dependent toxicity in H4 cells. These cellular models allow for the inducible overexpression of alpha-synuclein hemi-Venus fusion constructs (V1S+SV2) or full-length alpha-synuclein (the model is described in detail in: Bartels M, Weckbecker D, Kuhn P H, Ryazanov S, Leonov A, Griesinger C, Lichtenthaler S F, Bötzel K, Giese A: Iron-mediated aggregation and toxicity in a novel neuronal cell culture model with inducible alpha-synuclein expression, Sci. Rep. 2019 Jun. 24; 9(1):9100). Moreover, addition of DMSO and FeCl3 promotes the aggregation of alpha-synuclein which is associated with an increase in cytotoxicity. The cell culture assay uses these effects by determining the change in the number of cells and the change in the percentage of condensed nuclei, which is indicative of apoptosis, in order to obtain information on which compounds show the most promising effects and thus might be therapeutically useful.
(§6) In these experiments, cells were incubated with 100 μM FeCl3 and 0.75% DMSO in the presence of 10 μM anle138c as a positive control, compounds 1 to 19 (10 μM), or DMSO as a negative control. After 48 h, the cells were imaged with an OPERA high-throughput imaging system and analyzed using Acapella software (Perkin Elmer). […] A reduction in the fraction of condensed nuclei (in the absence of a strong reduction in cell number) is indicative of a beneficial therapeutic effect.

The subject of test [4] is H4 cells overexpressing full-length alpha-synuclein. As to the kind of experiment: Cellular model of aggregated alpha-synuclein-dependent toxicity, full-length alpha-synuclein H4 cells. It is filed as cell-based. To be noted: 10 μM compound, 100 μM FeCl3, 0.75% DMSO, 48 h; for inhibition at 10 µM: read-out: Change in fraction of condensed nuclei (rel. to DMSO control) [%]. Here is the method: as §5, §6

The target in test [5] is T3, alpha-synuclein (sonicated fibrils). As to the kind of experiment: Modified competition binding assay, protocol 3b, reference ligand [3H]-compound 1. Particulars: Table 4b, reference ligand [3H]-compound 1 (1 nM), read-out: Ki (nM) alpha-synuclein (sonicated fibrils). The procedure:
Fibrils were prepared by aggregation of recombinant protein via constant agitation. In detail, 70 μM of alpha-synuclein mixed with 100 mM NaCl in 50 mM Tris, pH 7.0+0.02% NaN3 were incubated at 1,400 rpm, 37° C. for 96 h. 10 μM of tau46 were incubated with 0.03 mg/ml heparin in 50 mM Tris, pH=7.0 at 1,000 rpm, 37° C. for 72 h.
Plates were incubated for 4.5 hours at RT covered by removable sealing tape (PerkinElmer, Waltham, Mass., USA).
Filtration and readout were performed as described for saturation binding assays.
The fibril competition assay provides Ki values. […] This assay is suitable for a screening of non-radioactive ligands.

The target of test [6] is T4, aggregated alpha-synuclein (Homo sapiens, UniProt P37840).
T4 construct: made in house; host or cells: E. coli
The experiment in a line: Saturation binding assay, protocol 2a, alpha-synuclein fibrils. To be noted: saturation assay protocol 2a, [3H]-labeled compound; read-out: KD [nM] for aggregated alpha-synuclein. Here is the method:
as §1
Sonicated αSYN (0.04 μM) or tau46 (0.4 μM) or Aβ1-42 (6 μM) fibrils diluted in PBS were incubated with decreasing concentrations of [^3H]-labeled compound (48 nM or 24 nM-[…]) in 50 mM Tris-base, 10% ethanol, 0.05% Tween20, pH 7.4. To determine non-specific binding, the respective unlabeled compound (400 nM) was added to a duplicate set of binding reactions.
as §3, with “2 h,” for “2 h”, “microwave oven” for “microwave”, “power. Melt-on scintillator sheets (MeltiLex™ B/HS, PerkinElmer, Waltham, Mass., USA) were molten into the filter using a heating plate set to 120° C. After solidifying at room temperature, the” for “power. The”, “MicroBeta®,” for “MicroBeta®, PerkinElmer, Waltham, Mass., USA) together with added scintillator (BETAPLATE SCINT,”
The fibril-binding saturation assay provides KD values. This assay is performed with directly radioactively labeled compounds (e.g. ^3H labeling). The saturation binding assays were performed using as target structures fibrillar aggregates produced from recombinant human alpha-synuclein, Aβ1-42, and tau46, respectively.

The mark [7] stands for this setting: Experiment A, read-out: Ki (nM) alpha-synuclein (fibrils).
Where [8] appears, read: Experiment B, read-out: Ki (nM) alpha-synuclein (sonicated fibrils).

Where two headings read alike, the source gives them in different places. Bounds are passed on as bounds.

T2 sequence (P10636 1-412 isoform P10636-7): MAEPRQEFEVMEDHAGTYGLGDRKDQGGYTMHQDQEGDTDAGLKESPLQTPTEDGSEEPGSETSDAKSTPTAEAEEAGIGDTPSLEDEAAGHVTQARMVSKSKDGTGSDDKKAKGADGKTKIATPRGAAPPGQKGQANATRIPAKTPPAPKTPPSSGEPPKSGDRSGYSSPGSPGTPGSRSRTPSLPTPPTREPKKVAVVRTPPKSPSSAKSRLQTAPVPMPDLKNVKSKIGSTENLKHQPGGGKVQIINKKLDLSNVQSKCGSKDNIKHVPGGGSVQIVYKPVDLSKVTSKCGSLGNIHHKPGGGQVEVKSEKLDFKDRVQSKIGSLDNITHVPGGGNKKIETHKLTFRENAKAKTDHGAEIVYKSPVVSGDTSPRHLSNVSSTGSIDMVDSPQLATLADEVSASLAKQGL

As to `CN(C)c1ccc(-c2cc(-c3ccnc(F)c3)[nH]n2)cc1` [Compound 3, 4-[5-(2-fluoropyridin-4-yl)-1H-pyrazol-3-yl]-N,N-dimethylaniline], the Ki in test [1] (setting [7]) is less than 0.1 nM; in test [1] (setting [8]), 3 nM; at tau46 (fibrils), 4 nM; in test [2] it was 0.95 nM. The “Change in cell number (rel. to DMSO control) [%]” value (from here on “Change in cell number … [%]”) in test [3] is −11.3%; in test [4] it was −34.8%. Besides, the inhibition at 10 µM in test [3] came to 31.9%; in test [4] it was 79.1%.
For the compound `Brc1ccnc(-c2cc(-c3ccc4c(c3)OCO4)n[nH]2)c1` [Compound 16, 2-[3-(1,3-benzodioxol-5-yl)-1H-pyrazol-5-yl]-4-bromopyridine], the inhibition constant (Ki) in test [5] was found to be 5.2 nM; in test [2], 4.7 nM. For the same compound, the “Change in cell number … [%]” value is given as −40.2% in test [3] and −47.1% in test [4]. The inhibition at 10 µM is -56.8% in test [3] and -0.8% in test [4].
For `CN(C)c1ccc(-c2cc(-c3ccnc(Br)c3)[nH]n2)cn1` [Compound 4, 5-[5-(2-bromopyridin-4-yl)-1H-pyrazol-3-yl]-N,N-dimethylpyridin-2-amine], the Ki was 8 nM in test [1] (setting [7]), 13 nM in test [1] (setting [8]), 31 nM on tau46 (fibrils) and 0.7 nM in test [2]. The “Change in cell number … [%]” value in test [3] is −36.9%; in test [4], −48.6%. Moreover, the inhibition at 10 µM in test [3] was -33.7%; in test [4], 30.1%.
As for `Brc1cncc(-c2cc(-c3ccc4c(c3)OCO4)n[nH]2)c1` [Compound 10], the Ki in test [1] (setting [7]) is 34 nM; in test [1] (setting [8]), 25 nM; on tau46 (fibrils) it was greater than 100 nM; in test [2] it was 7.8 nM. The figures for the “Change in cell number … [%]” value in test [3] and in test [4] were −32.8% and −35.3%, respectively. Also, the inhibition at 10 µM turned out to be 50.3% in test [3] and 60.2% in test [4].
Take `Cn1nc(-c2ccc3c(c2)OCO3)cc1-c1ccnc(Br)c1` [Compound 18, 4-[3-(1,3-benzodioxol-5-yl)-1-methyl-1H-pyrazol-5-yl]-2-bromopyridine]: in test [6], the Kd amounted to 126 nM. In test [3], the “Change in cell number … [%]” value was −11.8% and the inhibition at 10 µM stood at 19.9%. In test [4], the “Change in cell number … [%]” value is reported as −21.3% and the inhibition at 10 µM came to 18.2%.
Turning to `Brc1cccc(-c2cc(-c3ccc4c(c3)OCO4)n[nH]2)n1` [Compound 15, 2-[3-(1,3-benzodioxol-5-yl)-1H-pyrazol-5-yl]-6-bromopyridine], the Ki in test [5] was 6.7 nM; in test [2], 6.6 nM. For the same compound, the “Change in cell number … [%]” value is given as −11.3% in test [3] and −11.2% in test [4]. Besides, the inhibition at 10 µM in test [3] was -23.1%; in test [4], -20.3%.

As a reminder, the Ki is the equilibrium dissociation constant of an inhibitor or competing ligand from its target. A word on the Kd: it is the constant that tells how readily two partners part at equilibrium.
